Measured values taken from patent US7094602B2, “Method for cell culture” (Fuji Photo Film Co, Ltd., priority 2002, dated 2006).

Experiments:
CHL cells = experiment: Influence of chelating agent on cultured cells (Example 5); type: cell-based, Chinese Hamster; settings: cultured two days at 37° C. in the medium, 1.5 mM EDTA, GEDTA, DTPA, EDTPO, 3 g/l HMPA, 3 mM HEDP
Method: CHL cells cultured beforehand were collected by trypsinization, and the cell density was adjusted to 50000 cells/ml. This cell suspension was inoculated on a polystyrene cell culture dish at a cell number of 10000 cells/cm^2, and each of the following media was added. Then, the cells were cultured at 37° C. for two days by using a CO2 incubator. The results of evaluation of stimulative property on the cells based on morphology and proliferation property of the cultured cells are shown in Table 3. The results are represented by using the result obtained for the cells cultured with the medium a mention d in the table as a standard. […] Eagle's minimum medium (MEM) • Medium b: […] MEM added with 1.5 mM diethylenetriamine-N,N,N′,N,N-pentaacetic acid (DTPA) • Medium e: MEM added with 3 g/l of sodium hexametaphosphate (HMPA) • Medium f: […] MEM added with 1.5 mM ethylenediamine-N,N,N′,N′-tetrakis(methylenephosphoric acid) (EDTPO) As for the media b to f, pH was adjusted to that of the medium a with NaOH or HCl after the chemicals were added.

[1] = tested on: CHL (Chinese Hamster Lung Cell); experiment: Detachment of cultured cell layer from carrier for cell culture (Example 2); type: cell-based; settings: time required to detach CHL cell layer from calcium alginate/collagen carrier on immersion; MEM with EDTA, 3 g/l HMPA or 3 mM HEDP
Method: • Used cell: CHL (Chinese Hamster Lung Cell) • Used medium: Eagle's minimum medium containing 10% bovine fetal serum Carrier for Cell Culture: The carrier for cell culture prepared in Example 1, adhered to bottom surfaces of polystyrene cell culture dishes with double-sided tapes, and a polystyrene cell culture dishes alone as a comparative example were subjected to UV sterilization or electron beam sterilization. The operation, wherein the medium was added to the dishes to immerse the carrier for cell cultures for 5 minutes and then the medium was exchanged, was repeated three times, and then the dishes were left overnight to allow the medium to infiltrate into the carriers for cell culture. The calls cultured beforehand were collected by trypsin treatment, and the cell density was adjusted to 50,000 cells/ml. After the medium in the cells and dishes was discarded, the cell suspension was inoculated into the dishes at a cell number of 10,000 cells/cm^2, and then the medium was added. Thereafter, the cells were cultured at 37° C. for two days by using a CO2 incubator. The samples obtained by the culture were immersed in each of the following seven kinds of detachment solutions and non-detachment solutions, and then the cell layers were pulled with a pair of tweezers to examine state of detachment of the cell layers from the carriers for cell culture. A period of time required for the detachment of each cell layer was measured. Then, the cell sheets detached with an immersion time in a detachment solution of 30 minutes was placed on a polystyrene cell culture dish, added with the medium and cultured at 37° C. for one day by using a CO2 incubator. The cells were stained with trypan blue and observed under an optical microscope. The use of detachment agents of the present invention provided favorable detachment characteristics, that is, high survival rate of the cells and non-stimulative property (i.e., no cell deformation due to stimulation) was successfully confirmed. […]

[2] = tested on: CHL (Chinese Hamster Lung Cell); type: cell-based; settings: cell layer transfer with weighting 0.8 g/cm^2, immersion 10 minutes, culture one day, immersion 20 minutes; for State of cells after detachment: Morphology of survived cells: optical microscope; for State of cells after detachment: Survival rate: trypan blue
Text: The samples obtained by the culture on the carriers for cell culture in Example 2 were taken out together with the carriers for cell culture, and placed on polystyrene cell culture dishes in such a manner that the cell layer surfaces contacted with the dishes, and foamed urethane filters having a thickness of 3 mm and stainless steel plates were placed thereon in this order. The weight of each stainless steel plate was adjusted so that the total weight including the weight of the urethane filter became 0.8 g/cm^2. Then, the samples were immersed in the detachment solution (iii), (iv) or (v) mentioned in Example 2 for 10 minutes, and after the solution was replaced with the medium, culture was performed at 37° C. for one day by using a CO2 incubator. The cultures were immersed in the same detachment solutions for 20 minutes, and then the carriers for cell culture were detached by pulling with a pair of tweezers. Then, the solutions were replaced with the medium, and culture was continued at 37° C. for one day by using a CO2 incubator. The cells were stained with trypan blue and then observed under an optical microscope. Favorable results were obtained with the detachment solutions of the present invention. In the sample where the weight was applied only by using the stainless steel plates without using the […] and the sample where the detachment solution (i) was used, the cells died during the transfer operation. Further, in the sample where the detachment solution (ii) was used, transfer was not successful.

[3] = tested on: HepG2 (human liver cancer derived cells) laminated on BRL (Buffalo Rat Liver 3A); experiment: Lamination of cell layers, cytochrome P-450 3A metabolism of BFC to HFC (Example 4); type: cell-based; settings: HepG2 layer transferred on BRL with the detachment solution; cultured 90 hours, BFC added, cultured two days
Method: In the same manner as that of Example 2, HepG2 (human liver cancer derived cells) was cultured on the carrier for cell culture of Example 1, and BRL (Buffalo Rat Liver 3A, ATCC No. CRL 1442) was cultured on a polystyrene cell culture dish. Cell layers were transferred on the cells cultured on the dishes by using the detachment solution (v) mentioned in Example 2 in the same manner as that of Example 3 to obtain laminated cells.

Structure (SMILES) | State of cells: Morphology (CHL cells) | State of cells: Proliferation rate (CHL cells; relative to medium a (MEM)) | Detachment time [1] | State of cells after detachment: Morphology of survived cells [2] | State of cells after detachment: Survival rate [2] | HFC produced through metabolism by cytochrome P-450 3A in laminated cells (fluorescence microscope) [3]
O=C(O)CN(CCN(CC(=O)O)CC(=O)O)CC(=O)O [(iii) MEM + EDTA, EDTA] | X (30% or less of not rounded cells are indicated with X) | X (degradation to 70% or less is indicated with X) | 15 min | – | – | –
O=P1([O-])OP(=O)([O-])OP(=O)([O-])OP(=O)([O-])OP(=O)([O-])OP(=O)([O-])O1.[Na+].[Na+].[Na+].[Na+].[Na+].[Na+] [(iv) MEM + HMPA, sodium hexametaphosphate] | – | – | 10 min | Not deformed | 90% or more | –
CC(O)(P(=O)(O)O)P(=O)(O)O [(v) MEM + HEDP, 1-hydroxyethane-1,1-diphosphoric acid] | – | – | 20 min | Not deformed | 90% or more | Fluorescence derived from HFC was observed in the portions of HepG2
